Assay results from PubChem BioAssay (NCI).
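Cells were grown in 96-well plates and exposed to each compound for 48 hours at five concentrations; endpoints were interpolated linearly between bracketing concentrations, or set to the highest concentration if not reached. Here, GI50 denotes the concentration required for 50% inhibition of growth. At the TGI there is no net growth.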

Assays:
Assay in all cases: NCI tumour cell line growth inhibition, 48 h
MALME-3M melanoma = system: MALME-3M melanoma
SN12C renal = system: SN12C renal
SF-295 CNS = system: SF-295 CNS
SK-MEL-5 melanoma = system: SK-MEL-5 melanoma
OVCAR-5 ovarian = system: OVCAR-5 ovarian
U251 CNS = system: U251 CNS
OVCAR-3 ovarian = system: OVCAR-3 ovarian
OVCAR-4 ovarian = system: OVCAR-4 ovarian
IGROV1 ovarian = system: IGROV1 ovarian
MCF7 breast = system: MCF7 breast

SMILES | GI50 (MALME-3M melanoma) | TGI (MALME-3M melanoma) | GI50 (SN12C renal) | TGI (SN12C renal) | GI50 (SF-295 CNS) | TGI (SF-295 CNS) | GI50 (SK-MEL-5 melanoma) | TGI (SK-MEL-5 melanoma) | GI50 (OVCAR-5 ovarian) | TGI (OVCAR-5 ovarian) | GI50 (U251 CNS) | TGI (U251 CNS) | GI50 (OVCAR-3 ovarian) | TGI (OVCAR-3 ovarian) | GI50 (OVCAR-4 ovarian) | TGI (OVCAR-4 ovarian) | GI50 (IGROV1 ovarian) | TGI (IGROV1 ovarian) | GI50 (MCF7 breast) | TGI (MCF7 breast)
Cc1ccc(C2=C(c3ccccc3)C(c3ccccc3)Oc3ccc(C)cc32)cc1 (stereo not given) | 23.1 µM | 48.3 µM | 17.3 µM | 34.3 µM | 3.66 µM | 13.8 µM | 1.92 µM | 3.63 µM | 2.87 µM | 8.64 µM | 14.8 µM | 28.5 µM | 12.4 µM | 32.7 µM | 2.27 µM | 7.44 µM | 2.49 µM | 7.1 µM | 3.33 µM | 13.1 µM
O=[n+]1c2ccccc2n([O-])c2cc(Cl)ccc21 | 7.76 µM | 20.8 µM | 3.52 µM | 14.1 µM | 4.32 µM | 20.9 µM | 9.11 µM | 21.6 µM | 15.7 µM | 33.5 µM | 2.71 µM | 12 µM | 3.48 µM | 12.3 µM | 2.67 µM | 26.6 µM | 1.86 µM | 6.95 µM | 3.72 µM | 16.1 µM
Cc1ccc(C2=Nc3c(N)ncnc3NC(c3ccc4c(c3)OCO4)C2)cc1 (stereo not given) | 3.01 µM | 26.8 µM | 8.61 µM | > 100 µM | 3.45 µM | 21.7 µM | 3.85 µM | 37.5 µM | 32.1 µM | > 100 µM | 4.55 µM | 16.3 µM | 2.75 µM | 6.11 µM | 17.7 µM | 74.9 µM | 3.34 µM | 26.2 µM | 3.42 µM | > 100 µM
CCc1cc2ncc(CN3CCN(c4ccc(C(=O)NC)nc4)CC3)cc2[nH]c1=O | > 100 µM | > 100 µM | 98.3 µM | > 100 µM | 56.7 µM | > 100 µM | 30.4 µM | > 100 µM | > 100 µM | > 100 µM | > 100 µM | > 100 µM | 40.5 µM | > 100 µM | 41.3 µM | > 100 µM | 57.4 µM | > 100 µM | 29.4 µM | > 100 µM
Cc1[nH]c(-c2nc3ccccc3[nH]2)c(C)c1C(=O)NC(C)C1CCCCC1 (stereo not given) | 5.68 µM | 22.5 µM | 10.5 µM | 26 µM | 4.8 µM | 16.8 µM | 10.3 µM | 22.3 µM | 15 µM | 29.2 µM | 5.58 µM | 25.1 µM | 9.72 µM | 21.6 µM | 12.4 µM | 26.8 µM | 6.16 µM | 23.9 µM | 4.01 µM | 19.2 µM
CCOC(=O)c1c(C)nc2c(c1N)CC(=O)N2CCc1ccccc1 | 1.31 µM | 4.9 µM | 0.434 µM | 18.3 µM | 2.16 µM | 33.1 µM | 0.939 µM | 13.6 µM | 8.2 µM | 24.9 µM | 0.997 µM | 18.4 µM | 0.412 µM | 13.3 µM | 1.48 µM | 3.26 µM | 1.26 µM | 13 µM | 0.306 µM | 17.1 µM
O=c1c(NO)c([N+](=O)[O-])cnn1-c1ccccc1 | – | 12 µM | – | 7.59 µM | – | 27 µM | – | 12.4 µM | – | 14 µM | – | 8.07 µM | – | 5.76 µM | – | 6.95 µM | – | 41.1 µM | – | 16.5 µM
O=C1C(=O)c2ccccc2C(O)=C1CCCc1ccc(C2CCCCCC2)cc1 | 0.816 µM | 22.6 µM | 2.12 µM | > 100 µM | 0.558 µM | 30.2 µM | 0.445 µM | 11.5 µM | 19.8 µM | > 100 µM | 0.687 µM | 25.3 µM | 0.781 µM | 16.3 µM | 1.02 µM | > 100 µM | 0.486 µM | 5.89 µM | 0.513 µM | > 49 µM
NCCOc1ccccc1/C=C1\c2ccccc2-c2ccc([N+](=O)[O-])cc21 | 1.5 µM | 2.91 µM | 1.41 µM | 2.82 µM | 1.7 µM | 3.18 µM | 1.8 µM | 3.22 µM | 1.61 µM | 3.06 µM | 1.38 µM | 2.74 µM | 1.76 µM | 3.17 µM | 1.79 µM | 3.27 µM | 1.35 µM | 2.68 µM | 0.805 µM | 2.25 µM
CN1CCN(c2nc(NCCCNc3ccnc4cc(Cl)ccc34)c3ccccc3n2)CC1 | 1.98 µM | 3.84 µM | 4.97 µM | 18 µM | 2.05 µM | 4.92 µM | 1.78 µM | 3.18 µM | 4.17 µM | 19.1 µM | 3.39 µM | 10.3 µM | 6.93 µM | 21.6 µM | 2.69 µM | 12.5 µM | 4.52 µM | 18.9 µM | 2.37 µM | 13.2 µM
CCCCNC(=O)c1cc(NCc2cc(O)ccc2O)ccc1O | 11.8 µM | 27.3 µM | 13.6 µM | 29.5 µM | 46.2 µM | > 100 µM | 15.4 µM | 29.6 µM | 17.4 µM | 32 µM | 22.6 µM | 59.1 µM | 4.8 µM | 17.1 µM | 12.3 µM | 24.8 µM | 26.1 µM | 62.7 µM | 12.4 µM | 39.8 µM
COc1cc(N2CCN(C(C)C)CC2)ccc1Nc1nc(Nc2cccc(F)c2C(=O)O)c2cc[nH]c2n1 | > 25 µM | > 25 µM | > 25 µM | > 25 µM | > 25 µM | > 25 µM | > 25 µM | > 25 µM | > 25 µM | > 25 µM | > 25 µM | > 25 µM | > 25 µM | > 25 µM | > 25 µM | > 25 µM | > 25 µM | > 25 µM | > 25 µM | > 25 µM
Cc1ccc(C2=C(c3ccc(C)cc3)C3(c4ccc(C)cc4)C4C(=O)c5ccccc5C(=O)C4C2(c2ccc(C)cc2)S3=O)cc1 (stereo not given) | > 100 µM | > 100 µM | > 100 µM | > 100 µM | > 100 µM | > 100 µM | > 100 µM | > 100 µM | > 100 µM | > 100 µM | 63 µM | > 100 µM | > 100 µM | > 100 µM | 45 µM | > 100 µM | > 100 µM | > 100 µM | > 100 µM | > 100 µM
